Measurements from patent US20190231755A1, “METHOD FOR PRODUCING SOLID DISPERSION COMPRISING RAPAMYCIN DERIVATIVE” (NIPPON KAYAKU KABUSHIKI KAISHA, priority 2016, published 2019).

Tests used:
Assay type in all cases: physicochemical
[1] = Stability test of everolimus in various mixed solvents (Reference Example 1); settings: 1 mg/mL everolimus in ethanol/acetone mixed solvents, 25° C., up to 24 hours; when the ratio of ethanol is increased (FIG. 2)
Method: (§1) It is to be noted that, in the analysis using liquid chromatography (HPLC) in the present test examples, the measurement was carried out under the following conditions. • Measurement column: Zorbax Eclipse XDB-C18, Rapid resolution HT, 100 mm×4.6 mm, 1.8 μm • Detector: ultraviolet absorption spectrophotometer (measurement wavelength: 278 nm) • Column temperature: 45° C. • Mobile phase A: 0.1% formic acid; mobile phase B: methanol/acetonitrile=50/50
The stability test of everolimus in various mixed solvents was carried out. Various mixed solvents were each added to everolimus, and the prepared solutions each containing 1 mg/mL everolimus were then stored at 25° C.
The remaining amount of everolimus immediately after initiation of the storage test, and also 1 hour, 3 hours, 6 hours and 24 hours after initiation of the storage test was measured by high performance liquid chromatography (HPLC), and the peak area ratio of everolimus at each time point was then calculated. The ratio of solvents used for each sample is shown in Table 2, and the results obtained by measuring the remaining ratio of everolimus are shown in FIG. 2.

[2] = Stability test of everolimus with hypromellose in ethanol:acetone (=9:1) (Reference Example 2); settings: 10 mg everolimus with 150 mg hypromellose in 10 mL ethanol:acetone (=9:1), 25° C., up to 6 hours (FIG. 3)
Method: as §1
The stability test of everolimus comprising a water-soluble polymeric carrier in a mixed solution of ethanol and acetone (=9:1) was carried out. 10 mL of the mixed solution of ethanol and acetone (=9:1) was added to 150 mg of hypromellose (TC-5 E Type, manufactured by Shin-Etsu Chemical Co., Ltd.), and the obtained mixture was then stirred. To this mixture, 10 mg of everolimus was added, and the thus prepared mixture was then stored at 25° C.
The remaining amount of everolimus immediately after initiation of the storage test, and also 1 hour, 3 hours and 6 hours after initiation of the storage test was measured by high performance liquid chromatography (HPLC), and the peak area ratio of everolimus at each time point was then calculated.

[3] = Stability test of everolimus with hypromellose in an ethanol solution (Reference Example 3); settings: 10 mg everolimus with 150 mg hypromellose and 15 mg anhydrous lactose in 10 mL ethanol, 25° C.; immediately after the production (FIG. 4)
Method: as §1
The stability test of everolimus comprising a water-soluble polymeric carrier in an ethanol solution was carried out. 10 mL of ethanol was added to 150 mg of hypromellose (TC-5 E Type, manufactured by Shin-Etsu Chemical Co., Ltd.), and the obtained mixture was then stirred. To this mixture, 10 mg of everolimus was added, followed by stirring, and thereafter, 15 mg of anhydrous lactose was added to the reaction mixture, and the obtained mixture was further stirred. The thus prepared mixture was stored at 25° C.
The remaining amount of everolimus immediately after initiation of the storage test, and also 0.75 hours and 2 hours after initiation of the storage test was measured by high performance liquid chromatography (HPLC), and the peak area ratio of everolimus at each time point was then calculated.

SMILES: CO[C@H]1C[C@@H]2CC[C@@H](C)[C@@](O)(O2)C(=O)C(=O)N2CCCC[C@H]2C(=O)O[C@H]([C@H](C)C[C@@H]2CC[C@@H](OCCO)[C@H](OC)C2)CC(=O)[C@H](C)/C=C(\C)[C@@H](O)[C@@H](OC)C(=O)[C@H](C)C[C@H](C)/C=C/C=C/C=C/1C [everolimus, 40-O-(2-hydroxyethyl)rapamycin]
- purity of everolimus in solution (trend in words) [1]: decreased
- stability of everolimus in mixture (in words) [2]: improved
- remaining ratio of everolimus [3]: less than 96%
